Results from patent US10881656B2, “HIF inhibitors and use thereof” (The General Hospital Corporation, priority 2008, dated 2021).

What was measured:
[1] = test system: HIF-2a (HRE-luciferase, 7H4 cells); experiment: HRE-luciferase reporter assay in 786-O derived 7H4 cells; assay type: cell-based, human; settings: 786-O cells, 24 hours
Protocol: The screen for small molecule inhibitors was performed in the Institute for Chemical and Cellular biology, Harvard Medical School. 7SV or 7H4 cells were plated onto 384-well plates. The next day compounds were added robotically to the medium, to a final concentration of approximately 10 μM. 24 hours later, media was aspirated and Passive Lysis Buffer (Promega) and Luciferase Assay Reagent II (Promega) were added. Luciferase activity was measured with an Analyst plate reader (LJL Biosystems). All experiments were performed in duplicate and the identity of lead compounds was confirmed by mass spectroscopy
Luciferase assays were performed using the Promega's Dual-luciferase Assay Reporter System (Promega, E1910) according to the manufacturer's instructions. Counts obtained from transient transfections were normalized for co-transfected Renilla luciferase. Stable clones were normalized to medium only treated wells.
Functionally validated HRE and control SV40 luciferase reporter constructs were stably introduced into VHL-deficient 786-O cells to generate 7H4 and 7SV lines, respectively (see FIG. 8A). These lines were used to screen five commercial small molecule libraries (NCI Diversity Set, Chembridge, Maybridge, CEREP and Peakdale) and the ICCB Diversity-Oriented Synthesis (DOS) Diversity Set 2 (DDS2) and serine-derived peptidomimetic (SDP1) collections, totaling 58,000 compounds.
786-O cells were untreated (M, for medium only), mock-treated (D, for DMSO) or treated with compounds for two days before assaying for normalized luciferase activity. The resulting dose response curves are shown along with the compound structures in FIGS. 1A-1H).
To validate the connectivity map-derived prediction that PGJ2 is involved in HIF signaling, the inventors treated HRE-luciferase expressing 786-O cells (7H4) and SV40-luciferase expressing control cells (7SV) with increasing doses of PGJ2.

NFkB = experiment: TransAM NFkB ELISA; assay type: cell-based, human; settings: 786-O cells, 5uM, 24 hours
Protocol: Experiments were performed in triplicate. Error bars represent Standard Error of the Mean (SEM).

HIF = settings: published; cited from earlier work
[2] = target: T1, IRP2 binding to Ferritin-L IRE (Homo sapiens, UniProt P48200); experiment: Electrophoretic mobility shift assay, Ferritin L IRE probe; settings: 786-O lysates, EMSA
T1 construct: when expressed in endogenous levels; endogenous in cells; host or cells: 786-O
Protocol: EMSAs were performed as described previously (Fillebeen et al., 2003). Briefly, 50 μg lysate from 786-O cells treated with medium only, DMSO, or compounds were incubated with 25,000 cpm wild-type or mutant radiolabeled HIF-2a IRE probe for 20 minutes at room temperature before loading onto non-denaturing acrylamide gels. Supershifts were performed identically, save that 0.2 μg control, IRP1 or IRP2 antibodies were also added. Total protein content was estimated by Bradford Assay (BioRad, 500-0006), and even loading for all experiments was confirmed by Western blot for B-Actin.
Inventors discovered that compound 76 increased the residual amount of IRP1 bound to the HIF-2a IRE in hypoxia, although not to the same extent as that observed in normoxic cells. […] Lastly, to further investigate the involvement of IRP2 in HIF-2a IRE, the inventors compared side by side IRP2 binding to HIF-2a and Ferritin-L IRE in 786-O cells, in conditions of normoxia or hypoxia and after treatment with compound 76 or DFO (FIG. 7E). While IRP2 binding was clearly detected on Ferritin IRE, the inventors were not able to detect measurable IRP2 binding on HIF-2a IRE.

[3] = test system: iron (Fe-(EDHB)3 complex); experiment: In vitro iron competition assay; settings: 0-200 micromolars, absorbance at 500 nm
Protocol: This assay was performed similarly to that described previously (Wang et al., 2002). Briefly, displacement of iron from ethyl-3,4-dihydroxybenzoate (EDHB) complex was measured as a decrease in absorbance at 500 nm. Ferric iron, prepared as a 5 mM stock solution of FeC13 in 100 mM sodium citrate, was diluted to 25 μM in the presence of 750 μM EDHB. 1 ml aliquots of this solution were then mixed with 0, 25, 50, 100 or 200 micromolars of compounds 40, 41, 76, and 77 as well as EDTA and DFO for controls. […] The self absorbance of compound 41 in a matched solution lacking Fe-(EDHB)3 was subtracted from the A500 value obtained in the presence of the Fe-(EDHB)3 complex.
The inventors next directly tested whether the compounds bind iron by performing a competition assay in which the displacement of iron from ethyl-3,4-dihydroxybenzoate (EDHB), a weakly chelating ester, was measured as a decrease in absorbance at 500 nm. […] In addition, the inventors utilized the Connectivity Map to look for similarities between the induced gene expression signatures of low and high dose DFO and compound treated cells (Lamb et al., 2006). Using this bioinformatic approach, the inventors discovered no significant similarity between the gene expression profile of the compounds and low (chelating) DFO dose, while there was a negative correlation between compound effect and high (HIF stabilizing) DFO dose (see FIG. 13).

[4] = test system: HIF-2a 5′-UTR Iron-Responsive Element (IRE); experiment: Luciferase reporters with HIF-2a 5′-UTR / IRE in 786-O cells; assay type: cell-based, human; settings: 10 μM, normoxia and hypoxia

T1 sequence (P48200 whole entry): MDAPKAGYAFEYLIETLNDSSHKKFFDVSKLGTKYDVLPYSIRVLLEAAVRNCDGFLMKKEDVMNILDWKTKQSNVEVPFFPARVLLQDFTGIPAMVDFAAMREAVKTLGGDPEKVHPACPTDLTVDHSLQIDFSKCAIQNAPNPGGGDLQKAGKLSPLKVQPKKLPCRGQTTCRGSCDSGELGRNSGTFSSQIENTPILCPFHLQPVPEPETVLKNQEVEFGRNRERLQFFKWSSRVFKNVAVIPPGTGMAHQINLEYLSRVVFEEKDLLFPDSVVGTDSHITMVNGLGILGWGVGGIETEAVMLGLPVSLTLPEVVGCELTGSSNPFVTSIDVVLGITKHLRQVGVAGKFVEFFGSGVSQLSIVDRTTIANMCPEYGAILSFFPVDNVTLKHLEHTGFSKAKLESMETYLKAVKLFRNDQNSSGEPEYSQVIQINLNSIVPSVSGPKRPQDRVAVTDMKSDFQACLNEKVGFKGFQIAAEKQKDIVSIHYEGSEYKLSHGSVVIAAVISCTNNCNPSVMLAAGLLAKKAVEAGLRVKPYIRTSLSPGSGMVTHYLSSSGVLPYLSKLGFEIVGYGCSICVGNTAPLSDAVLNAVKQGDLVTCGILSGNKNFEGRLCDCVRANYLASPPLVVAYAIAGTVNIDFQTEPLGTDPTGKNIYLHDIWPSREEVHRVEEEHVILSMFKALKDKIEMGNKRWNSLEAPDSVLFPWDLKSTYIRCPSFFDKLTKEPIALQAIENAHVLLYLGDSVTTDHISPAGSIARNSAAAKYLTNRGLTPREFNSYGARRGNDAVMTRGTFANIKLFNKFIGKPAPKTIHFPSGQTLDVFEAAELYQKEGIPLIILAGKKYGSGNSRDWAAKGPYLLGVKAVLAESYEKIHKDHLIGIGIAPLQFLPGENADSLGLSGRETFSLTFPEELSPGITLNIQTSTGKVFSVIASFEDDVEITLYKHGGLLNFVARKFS

| Structure (SMILES) | Mechanism of HIF inhibtion (HIF) | Biological Activities (HIF) | also measured |
| --- | --- | --- | --- |
| Cc1ccc2nc(NCCN)c3ncc(C)n3c2c1 [BMS-345541, reference compound] |  |  | HRE-luciferase activity [1]: did not alter the HRE-luciferase activity; basal NFkB activity (NFkB): basal NFkB activity is suppressed |
| COc1ccc2cc3[n+](cc2c1OC)CCc1cc2c(cc1-3)OCO2 [Berberine] | HIF degradation |  |  |
| CC(C)(c1ccc(O)cc1)c1ccc(O)cc1 [Bisphenol] | HIF degradation |  |  |
| COc1cc2c(cc1O)CC[C@@H]1[C@@H]2CC[C@]2(C)[C@@H](O)CC[C@@H]12 [Compound 2-ME2] | Post-transcriptional | Inhibits HUVEC |  |
| CC(=O)N(O)CCCCCNC(=O)CCC(=O)N(O)CCCCCNC(=O)CCC(=O)N(O)CCCCCN [DFO, reference compound] |  |  | binding of IRP2 to Ferritin-L IRE [2]: slightly enhanced; displacement of iron from EDHB complex (iron chelation) [3]: readily displaced iron from EDHB; HIF-2a IRE luciferase reporter activity [4]: repressed reporter activity and diminished the effect of hypoxia |
| O=C(O)CN(CCN(CC(=O)O)CC(=O)O)CC(=O)O [EDTA, reference compound] |  |  | displacement of iron from EDHB complex (iron chelation) [3]: readily displaced iron from EDHB |
| COc1cc([C@@H]2c3cc4c(cc3[C@@H](Nc3ccc([N+](=O)[O-])cc3)[C@H]3COC(=O)[C@H]23)OCO4)cc(OC)c1O [GL331] | Protein levels | Inhibits HUVEC |  |
| CCC(C)SSc1ncc[nH]1 (stereo not drawn) [PX-12] |  | Tumor suppression |  |
| OCc1ccc(-c2nn(Cc3ccccc3)c3ccccc23)o1 [YC-1] | HIF protein levels | VEGF decrease/tumor |  |
